Each structure is given as a SMILES string.

Assay [1] deals with HT-29. The assay is described as follows: Cell cycle arrest in human HT-29 cells assessed as accumulation at sub-G1 phase at 0.5 uM after 48 hrs by flow cytometry. The class given is functional. A general note: In flow cytometry, cells or beads pass a laser one at a time.
Assay [2] deals with HT-29. The assay is described as follows: Cell cycle arrest in human HT-29 cells assessed as accumulation at sub-G1 phase at 1 uM after 24 hrs by flow cytometry. It counts as functional.
Assay [3] deals with HT-29. The assay can be described thus: Antiproliferative activity against human HT-29 cells after 3 days by MTT assay. Particulars: HT-29, 72 h. It counts as functional, cell-based. Background: Tetrazolium assays rely on reduction of a dye to a coloured formazan, in cell work by metabolically active cells.
The subject of assay [4] is HT-29. The assay is described as follows: Cell cycle arrest in human HT-29 cells assessed as accumulation at sub-G1 phase at 0.1 uM after 24 hrs by flow cytometry. It counts as functional.
The test system of assay [5] is HT-29. The assay can be described thus: Cell cycle arrest in human HT-29 cells assessed as accumulation at sub-G1 phase at 0.25 uM after 24 hrs by flow cytometry. The class given is functional.
Assay [6] concerns HT-29. The assay is described as follows: Cell cycle arrest in human HT-29 cells assessed as accumulation at sub-G1 phase at 1 uM after 48 hrs by flow cytometry. The class given is functional.
Assay [7] relates to HT-29. The assay can be described thus: Cell cycle arrest in human HT-29 cells assessed as accumulation at sub-G1 phase at 0.1 uM after 48 hrs by flow cytometry. It counts as functional.
Assay [8] concerns HT-29. The assay can be described thus: Cell cycle arrest in human HT-29 cells assessed as accumulation at sub-G1 phase at 0.5 uM after 24 hrs by flow cytometry. The class given is functional.
The test system of assay [9] is HT-29. The assay can be described thus: Cell cycle arrest in human HT-29 cells assessed as accumulation at sub-G1 phase at 2.5 uM after 24 hrs by flow cytometry. The class given is functional.
Assay [10] has as its system HeLa. The assay is described as follows: Antiproliferative activity against human HeLa cells after 3 days by MTT assay. It counts as functional, cell-based. To be noted: 72 h.
The subject of assay [11] is HT-29. The assay is described as follows: Cell cycle arrest in human HT-29 cells assessed as accumulation at sub-G1 phase at 2.5 uM after 48 hrs by flow cytometry. It counts as functional.
Assay [12] has as its system HT-29. The assay can be described thus: Cell cycle arrest in human HT-29 cells assessed as accumulation at sub-G1 phase at 0.05 uM after 48 hrs by flow cytometry. The class given is functional.
Assay [13] has as its system HT-29. The assay can be described thus: Cell cycle arrest in human HT-29 cells assessed as accumulation at sub-G1 phase at 0.05 uM after 24 hrs by flow cytometry. The class given is functional.
For assay [14], the system named is HT-29. The assay can be described thus: Cell cycle arrest in human HT-29 cells assessed as accumulation at sub-G1 phase at 0.25 uM after 48 hrs by flow cytometry. The class given is functional.
Assay [15] relates to A549. The assay can be described thus: Antiproliferative activity against human A549 cells after 3 days by MTT assay. To be noted: A549, 72 h. It counts as functional, cell-based.

With `Nc1ccc2cc3ccc(I)cc3nc2c1CO`, the Activity in assay [1] stood at 19.3%; in assay [2] it was 8.7%; in [4], 1.4%; in [5], 6.3%; in assay [6], 14.8%; in assay [7] it was 22.6%. Moreover, the Activity was 1.7% in assay [8]; 8.9% in assay [9]; 12% in assay [11]; 2.14% in assay [12]; 3.9% in assay [13]; 23.7% in assay [14]. In addition, the IC50 in assay [3] was found to be 70 nM; in [10], 70 nM; in [15], 130 nM.

Regarding `Nc1ccc2cc3ccccc3nc2c1CO`, the Activity in assay [1] worked out at 26.3%; in assay [2], 5.2%; in assay [4] it was 0.1%; in [5], 0.7%; in assay [6], 31.7%; in assay [7] it was 4.7%. The Activity in [8] is given as 9.7%; in assay [9], 13.7%; in [11] it was 23.4%; in assay [12] it was 0.7%; in assay [13] it was 3.2%; in assay [14], 18.7%. Further, the IC50 turned out to be 34 nM in assay [3], 70 nM in [10] and 60 nM in assay [15].

One may read the IC50 as the concentration that inhibits the measured activity by half. Read a high IC50 as a need for much substance.
